Experiments:
ovulation in women = details: COC started two days after ulipristal acetate intake; cited from earlier work
[1] = test system: ovarian activity and ovulation in women; assay: Prospective, randomized, parallel-group clinical study of ovarian activity after ellaOne taken after three missed COC pills; type: in vivo; details: for ovulation with risk of pregnancy: Arm 1, COC resumed same day as UPA 30 mg, any time of experimental cycle, N=26
Description: To determine the effect on ovarian activity and ovulation, of waiting five days before re-starting combined oral contraception (COC), or restarting immediately, having taken ulipristal acetate (UPA) for emergency contraception (EC) after missing three COC pills.
Women were enrolled for three cycles of COC use in a 21/7 regimen. In cycle 3 all women omitted COC pills for three consecutive days (days 5, 6, 7) and on day 8 took UPA-EC (30 mg). Half the women restarted their COC pills that same day while the remainder waiting for five days before restarting. Transvaginal ultrasound (TVUS) and blood sampling for estrogen and progesterone (E and P) was undertaken in all women on days 4, 8, 11, 13, 15, 18, 22 and 26. If a follicle of >13 mm diameter was seen, TVUS and blood sampling were performed daily until a post-ovulatory follicle was seen.
Women aged 18-30, weighing ≤30 kg/m^2 participated in the study during use of three consecutive packets of COCP. Women with contraindications to the COC or with conditions associated with anovulation (e.g. polycystic ovarian syndrome), and women who were breastfeeding or using any other hormonal contraception or an intrauterine device (IUD) were excluded. Screening was undertaken during cycle 1. Throughout the study women kept a daily diary of pill intake and vaginal bleeding. All women were instructed to take their pills at the same time every evening and to follow standard rules during the first two cycles of pill use for missed pills or for vomiting after taking a pill. The duration of COC intake in cycle 1 was adjusted (to no less than 14 and no more than 21 pills) to allow the first day of cycle 2 (baseline cycle—BSL) to fall on a weekday. After a seven-day hormone free interval (HFI) all women switched to the study COC containing 30 μg ethinyl estradiol/150 μg levonorgestrel with seven placebo tablets. Cycle three (Experimental cycle—EXP), started after a seven-day HFI at the end of BSL. After transvaginal ultrasound (TVUS) on day 1 of pill intake women were randomized so that an equal number of women with ovarian follicles of diameter ≤10 mm, or >10 mm and ≤13 mm or >13 mm were allocated to one of two study arms. After 4 days of COC, all women deliberately missed their COC pill on three consecutive days (5, 6, 7) and on the morning of day 8 all took a single 30 mg tablet of ellaOne® (ulipristal acetate 30 mg). Women in arm 1 of the study (immediate re-start) resumed daily COC intake that evening (D8) while those in arm 2 waited 5 days, re-starting their OC pill on the evening of D13 (delayed re-start). Once restarted, the COCP was continued until the packet was finished. A high sensitivity urinary pregnancy test was undertaken on day 1 of BSL and EXP and at the final study visit one or two days after the HFI following the end of the pill pack. Adverse event information was collected at every visit and blood sampling for haemoglobin and liver function was performed four times during the study.
An ovarian activity score developed from the Hoogland score (Hoogland and Skouby 1993, Contraception, 1993. 47(6): p. 583-90). The ovary was considered quiescent (OSq) if estradiol concentration was ≤0.1 nmol/L and progesterone ≤5 nmol/L even if a follicle of >13 mm was present. […] Ovulation was considered at risk of pregnancy (OSp) if there was a postovulatory image on TVUS and progesterone concentrations were >30 nmol/L on one occasion or between 10-30 nmol/L on two consecutive occasions.
The proportion of women who were at risk of pregnancy (OSp) at any time during the experimental cycle, including those who ovulated within the five days following ellaOne® intake, was estimated and the exact (Clopper-Pearson) two-sided 95% confidence interval was provided for each arm. The difference between the two arms was tested through an exact without stratum adjustment due to insufficient number of women in the self-weighted strata. […]

[2] = Arm 1 immediate COCP re-start (D8), experimental cycle D 1
[3] = Arm 1 immediate COCP re-start (D8), experimental cycle D 4
[4] = Arm 1 immediate COCP re-start (D8), experimental cycle D 8
[5] = Arm 1 immediate COCP re-start (D8), experimental cycle D 11
[6] = Arm 1 immediate COCP re-start (D8), experimental cycle D 13
[7] = Arm 1 immediate COCP re-start (D8), experimental cycle D 15
[8] = Arm 1 immediate COCP re-start (D8), experimental cycle D 18
[9] = Arm 1 immediate COCP re-start (D8), experimental cycle D 22
[10] = Arm 1 immediate COCP re-start (D8), experimental cycle D 26
[11] = Arm 2 delayed COCP re-start (D13), experimental cycle D 1
[12] = Arm 2 delayed COCP re-start (D13), experimental cycle D 4
[13] = Arm 2 delayed COCP re-start (D13), experimental cycle D 8
[14] = Arm 2 delayed COCP re-start (D13), experimental cycle D 11
[15] = Arm 2 delayed COCP re-start (D13), experimental cycle D 13
[16] = Arm 2 delayed COCP re-start (D13), experimental cycle D 15
[17] = Arm 2 delayed COCP re-start (D13), experimental cycle D 18
[18] = Arm 2 delayed COCP re-start (D13), experimental cycle D 22
[19] = Arm 2 delayed COCP re-start (D13), experimental cycle D 26

CC(=O)O[C@]1(C(C)=O)CC[C@H]2[C@@H]3CCC4=CC(=O)CCC4=C3[C@@H](c3ccc(N(C)C)cc3)C[C@@]21C [ellaOne, 17α-acetoxy-11β-[4-N,N-dimethylamino-phenyl]-19-norpregna-4,9-diene-3,20-dione]
effect of starting COC on efficacy of ulipristal acetate to inhibit or delay ovulation (ovulation in women): significantly impairs efficacy | ovulation with risk of pregnancy ([1]; listed as Ella): no ovulation at risk of pregnancy occurred | ovulation with risk of pregnancy ([1]; listed as Ellaone): no woman | number of women with ovarian activity without risk of pregnancy (OSa) ([1]; Arm 1, immediate COC re-start, experimental cycle): one | OSa (ovarian activity not at risk of pregnancy), women with status/women monitored [1, 2]: 0/26 | OSp (ovulation at risk of pregnancy), women with status/women monitored [1, 2]: 0/26 | OSq (ovary quiescent), women with status/women monitored [1, 2]: 26/26 | OSa (ovarian activity not at risk of pregnancy), women with status/women monitored [1, 3]: 1/26 | OSp (ovulation at risk of pregnancy), women with status/women monitored [1, 3]: 0/26 | OSq (ovary quiescent), women with status/women monitored [1, 3]: 25/26 | OSa (ovarian activity not at risk of pregnancy), women with status/women monitored [1, 4]: 2/26 | OSp (ovulation at risk of pregnancy), women with status/women monitored [1, 4]: 0/26 | OSq (ovary quiescent), women with status/women monitored [1, 4]: 24/26 | OSa (ovarian activity not at risk of pregnancy), women with status/women monitored [1, 5]: 1/26 | OSp (ovulation at risk of pregnancy), women with status/women monitored [1, 5]: 0/26 | OSq (ovary quiescent), women with status/women monitored [1, 5]: 25/26 | OSa (ovarian activity not at risk of pregnancy), women with status/women monitored [1, 6]: 1/26 | OSp (ovulation at risk of pregnancy), women with status/women monitored [1, 6]: 0/26 | OSq (ovary quiescent), women with status/women monitored [1, 6]: 25/26 | OSa (ovarian activity not at risk of pregnancy), women with status/women monitored [1, 7]: 1/26 | OSp (ovulation at risk of pregnancy), women with status/women monitored [1, 7]: 0/26 | OSq (ovary quiescent), women with status/women monitored [1, 7]: 25/26 | OSa (ovarian activity not at risk of pregnancy), women with status/women monitored [1, 8]: 1/26 | OSp (ovulation at risk of pregnancy), women with status/women monitored [1, 8]: 0/26 | OSq (ovary quiescent), women with status/women monitored [1, 8]: 25/26 | OSa (ovarian activity not at risk of pregnancy), women with status/women monitored [1, 9]: 1/26 | OSp (ovulation at risk of pregnancy), women with status/women monitored [1, 9]: 0/26 | OSq (ovary quiescent), women with status/women monitored [1, 9]: 25/26 | OSa (ovarian activity not at risk of pregnancy), women with status/women monitored [1, 10]: 1/26 | OSp (ovulation at risk of pregnancy), women with status/women monitored [1, 10]: 0/26 | OSq (ovary quiescent), women with status/women monitored [1, 10]: 24/25 | proportion of women who ovulated with risk of pregnancy ([1]; Arm 2, COC re-start delayed five days after UPA 30 mg, experimental cycle, CI 5.0-38.8, p=0.042 vs Arm 1): 17.4% | number of women who ovulated with risk of pregnancy ([1]; Arm 2, COC re-start delayed five days, more than 5 days after UPA-EC, before end of experimental cycle, N=23): Four | number of women with resumption of follicle growth ([1]; Arm 2, delayed COC re-start, remainder of experimental cycle): Eight | OSa (ovarian activity not at risk of pregnancy), women with status/women monitored [1, 11]: 1/23 | OSp (ovulation at risk of pregnancy), women with status/women monitored [1, 11]: 0/23 | OSq (ovary quiescent), women with status/women monitored [1, 11]: 22/23 | OSa (ovarian activity not at risk of pregnancy), women with status/women monitored [1, 12]: 3/23 | OSp (ovulation at risk of pregnancy), women with status/women monitored [1, 12]: 0/23 | OSq (ovary quiescent), women with status/women monitored [1, 12]: 20/23 | OSa (ovarian activity not at risk of pregnancy), women with status/women monitored [1, 13]: 4/23 | OSp (ovulation at risk of pregnancy), women with status/women monitored [1, 13]: 0/23 | OSq (ovary quiescent), women with status/women monitored [1, 13]: 19/23 | OSa (ovarian activity not at risk of pregnancy), women with status/women monitored [1, 14]: 6/23 | OSp (ovulation at risk of pregnancy), women with status/women monitored [1, 14]: 0/23 | OSq (ovary quiescent), women with status/women monitored [1, 14]: 17/23 | OSa (ovarian activity not at risk of pregnancy), women with status/women monitored [1, 15]: 5/22 | OSp (ovulation at risk of pregnancy), women with status/women monitored [1, 15]: 0/22 | OSq (ovary quiescent), women with status/women monitored [1, 15]: 17/22 | OSa (ovarian activity not at risk of pregnancy), women with status/women monitored [1, 16]: 7/23 | OSp (ovulation at risk of pregnancy), women with status/women monitored [1, 16]: 0/23 | OSq (ovary quiescent), women with status/women monitored [1, 16]: 16/23 | OSa (ovarian activity not at risk of pregnancy), women with status/women monitored [1, 17]: 8/23 | OSp (ovulation at risk of pregnancy), women with status/women monitored [1, 17]: 1/23 | OSq (ovary quiescent), women with status/women monitored [1, 17]: 14/23 | OSa (ovarian activity not at risk of pregnancy), women with status/women monitored [1, 18]: 2/23 | OSp (ovulation at risk of pregnancy), women with status/women monitored [1, 18]: 4/23 | OSq (ovary quiescent), women with status/women monitored [1, 18]: 17/23 | OSa (ovarian activity not at risk of pregnancy), women with status/women monitored [1, 19]: 4/23 | OSp (ovulation at risk of pregnancy), women with status/women monitored [1, 19]: 4/23 | OSq (ovary quiescent), women with status/women monitored [1, 19]: 15/23 | interference between the COC and EllaOne ([1]; COC resumed the same day as EllaOne 30 mg): no interference

Source: patent US20200316091A1, “METHOD FOR PROVIDING CONTRACEPTION” (LABORATOIRE HRA-PHARMA, priority 2019, published 2020)
